Source: PMC4494889 (Cell reports, 2015)
Numbering of substitutions follows the chain as printed. Like-named read-outs stand apart in the source and are kept apart here.

What was measured:
[1] = tested on: RIPK1−/− MEFs; test: IFNγ-induced RIPK3-dependent cell death; conditions: 10 ng/ml IFNγ, 24 hr
[2] = molecular target: T1, RIPK3 (Homo sapiens, UniProt Q9Y572); test: ADP-Glo in vitro kinase assay, recombinant RIPK3; format: biochemical
[3] = molecular target: T2, RIPK1 (Homo sapiens, UniProt Q13546); test: ADP-Glo in vitro kinase assay, recombinant RIPK1
T2 sequence (Q13546 1-327): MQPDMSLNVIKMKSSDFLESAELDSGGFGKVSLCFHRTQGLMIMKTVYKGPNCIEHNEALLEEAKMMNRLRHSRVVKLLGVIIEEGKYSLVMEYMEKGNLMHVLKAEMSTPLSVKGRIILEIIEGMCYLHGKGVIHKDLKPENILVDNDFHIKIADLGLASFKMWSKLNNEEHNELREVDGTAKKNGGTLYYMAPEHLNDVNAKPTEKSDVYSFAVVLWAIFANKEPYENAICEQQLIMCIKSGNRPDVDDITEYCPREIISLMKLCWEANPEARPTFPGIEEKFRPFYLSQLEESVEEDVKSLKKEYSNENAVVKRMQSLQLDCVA

[4] = tested on: FADD-deficient Jurkat cells; test: Jurkat cell necroptosis assay; conditions: for IC50: read-out: IC50, nM Jurkat cell necroptosis assay (RIPK1/3-dependent)
[5] = molecular target: RIPK2 (Homo sapiens, UniProt O43353); test: ADP-Glo in vitro kinase assay, recombinant RIPK2; format: biochemical
RIPK2, sequence (O43353 whole entry, species assumed): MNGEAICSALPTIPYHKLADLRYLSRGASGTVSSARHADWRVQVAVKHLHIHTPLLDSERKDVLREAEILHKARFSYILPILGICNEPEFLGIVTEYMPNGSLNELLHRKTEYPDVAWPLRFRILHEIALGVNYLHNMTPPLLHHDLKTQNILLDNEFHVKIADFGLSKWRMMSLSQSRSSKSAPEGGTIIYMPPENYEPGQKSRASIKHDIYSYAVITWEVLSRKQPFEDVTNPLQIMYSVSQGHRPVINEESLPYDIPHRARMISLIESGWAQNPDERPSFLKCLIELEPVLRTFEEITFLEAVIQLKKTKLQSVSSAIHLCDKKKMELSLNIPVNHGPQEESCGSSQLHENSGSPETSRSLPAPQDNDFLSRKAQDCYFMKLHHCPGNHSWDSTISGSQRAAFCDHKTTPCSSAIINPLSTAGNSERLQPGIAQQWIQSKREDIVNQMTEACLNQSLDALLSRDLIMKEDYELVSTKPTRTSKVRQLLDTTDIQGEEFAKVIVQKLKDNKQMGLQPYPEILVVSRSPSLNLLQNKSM

[6] = molecular target: T3, RIPK1/RIPK3 “necrosome” complex (Mus musculus, UniProt Q60855); test: Necrosome complex formation, co-IP assay in TCZ-stimulated MEFs; format: cell-based; conditions: TCZ 6 hr, RIPK3 immunoprecipitation
T3 sequence (Q60855 1-656): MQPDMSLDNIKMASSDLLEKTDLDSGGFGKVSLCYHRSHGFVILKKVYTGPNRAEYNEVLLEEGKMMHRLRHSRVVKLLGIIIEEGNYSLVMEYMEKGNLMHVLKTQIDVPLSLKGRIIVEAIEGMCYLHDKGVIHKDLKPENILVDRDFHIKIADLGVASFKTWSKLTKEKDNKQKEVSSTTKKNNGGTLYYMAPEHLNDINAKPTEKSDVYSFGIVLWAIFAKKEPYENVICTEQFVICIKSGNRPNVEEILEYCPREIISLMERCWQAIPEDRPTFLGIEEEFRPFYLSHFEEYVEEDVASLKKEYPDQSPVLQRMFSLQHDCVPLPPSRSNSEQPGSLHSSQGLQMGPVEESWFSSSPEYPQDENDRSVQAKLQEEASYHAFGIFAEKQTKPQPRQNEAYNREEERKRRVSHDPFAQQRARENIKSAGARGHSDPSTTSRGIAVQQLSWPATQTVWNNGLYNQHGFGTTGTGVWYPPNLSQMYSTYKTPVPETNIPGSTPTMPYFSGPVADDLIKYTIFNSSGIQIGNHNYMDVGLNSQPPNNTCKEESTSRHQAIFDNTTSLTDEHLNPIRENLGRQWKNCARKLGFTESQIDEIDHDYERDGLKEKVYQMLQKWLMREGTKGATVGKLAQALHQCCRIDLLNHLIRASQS

[7] = tested on: MEFs; test: TCZ; format: cell-based; conditions: 50 ng/ml mouse TNFα, 200 ng/ml cycloheximide, 25 μM zVAD.fmk, 18 hr
[8] = tested on: MEFs; test: poly; format: cell-based, mouse; conditions: 5 μg/ml poly(I:C), 50 μM zVAD.fmk, 24 hr
[9] = tested on: TNFα toxicity in C57BL6/J mice; test: TNF-induced injury in vivo; conditions: for protection from TNFα toxicity in vivo: 15 min before 5 μg/mouse mouse TNFα i.v.; for activity with respect to survival and injury markers: 0.4 mg/kg i.p., versus Nec-1
[10] = molecular target: T1, RIPK3; test: 32P autophosphorylation assay, recombinant RIPK3; format: biochemical; conditions: 2 μM kinase
[11] = molecular target: Abl (Homo sapiens, UniProt P00519); test: ADP-Glo in vitro kinase assay, recombinant Abl; format: biochemical; conditions: read-out: IC50, nM ADPGlo, Abl; recombinant Abl (1 ng)
Abl, sequence (P00519 whole entry, species assumed): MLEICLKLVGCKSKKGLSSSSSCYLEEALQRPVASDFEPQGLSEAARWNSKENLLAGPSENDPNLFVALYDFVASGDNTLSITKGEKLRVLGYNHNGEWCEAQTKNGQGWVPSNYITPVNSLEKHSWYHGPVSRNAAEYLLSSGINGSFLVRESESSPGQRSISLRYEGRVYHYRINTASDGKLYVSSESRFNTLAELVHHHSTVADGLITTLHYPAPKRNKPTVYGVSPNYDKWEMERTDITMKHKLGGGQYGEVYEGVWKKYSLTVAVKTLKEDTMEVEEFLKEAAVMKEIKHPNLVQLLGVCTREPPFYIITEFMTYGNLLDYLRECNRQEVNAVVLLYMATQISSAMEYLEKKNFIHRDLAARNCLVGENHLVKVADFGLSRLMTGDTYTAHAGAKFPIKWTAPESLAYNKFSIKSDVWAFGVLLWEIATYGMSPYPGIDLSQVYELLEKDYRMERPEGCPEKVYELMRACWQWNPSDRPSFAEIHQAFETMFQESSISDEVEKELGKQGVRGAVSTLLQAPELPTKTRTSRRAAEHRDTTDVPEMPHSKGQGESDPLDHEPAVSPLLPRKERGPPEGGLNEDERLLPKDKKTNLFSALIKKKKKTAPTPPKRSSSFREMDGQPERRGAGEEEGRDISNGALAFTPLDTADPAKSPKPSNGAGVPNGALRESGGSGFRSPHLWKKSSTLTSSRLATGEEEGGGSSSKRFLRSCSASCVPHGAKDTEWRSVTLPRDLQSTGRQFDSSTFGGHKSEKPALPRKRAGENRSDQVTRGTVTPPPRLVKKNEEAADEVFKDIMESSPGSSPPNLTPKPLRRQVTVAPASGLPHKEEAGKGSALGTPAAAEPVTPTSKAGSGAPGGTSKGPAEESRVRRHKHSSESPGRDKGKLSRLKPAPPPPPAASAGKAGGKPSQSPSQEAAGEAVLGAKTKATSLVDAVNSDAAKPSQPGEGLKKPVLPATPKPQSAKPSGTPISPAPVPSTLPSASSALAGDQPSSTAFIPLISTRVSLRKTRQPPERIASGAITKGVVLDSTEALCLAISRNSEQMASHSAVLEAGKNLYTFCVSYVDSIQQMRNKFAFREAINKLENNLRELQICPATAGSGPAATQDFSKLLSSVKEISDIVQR

[12] = tested on: TNFα mRNA in iBMM cells; test: RIPK1-dependent TNFα mRNA upregulation, qRT-PCR, iBMM; format: cell-based, mouse; conditions: 10 ng/ml LPS and 50 μM zVAD.fmk, 7 hr
[13] = tested on: TNFα mRNA in FADD-deficient Jurkat cells; test: RIPK1-dependent TNFα mRNA upregulation, qRT-PCR, Jurkat; format: cell-based; conditions: 10 ng/ml human TNFα, 8 hr
[14] = molecular target: T2, RIPK1; test: 32P autophosphorylation assay, recombinant RIPK1; format: biochemical; conditions: 2 μM kinase
[15] = tested on: MEFs; test: RIPK1-dependent apoptosis of MEFs; conditions: 10 ng/ml mouse TNFα + 100 nM 5z-7-oxozeaenol, 24 hr
[16] = molecular target: T2, RIPK1; test: HTRF assay of RIPK1; format: biochemical
[17] = molecular target: T4, L157F/M92T RIPK1 (Homo sapiens, UniProt Q13546, L157F/M92T); test: 32P autophosphorylation assay, L157F/M92T RIPK1; format: biochemical; conditions: FLAG-tagged kinase (a.a. 1–327) from HEK293T cells
T4 sequence (Q13546 1-327 M92T/L157F): T2 sequence (Q13546 1-327) with M92T, L157F

[18] = molecular target: DYRK1b (Homo sapiens, UniProt Q9Y463); test: ScanEDGE; format: binding; conditions: 1 μM
DYRK1b, sequence (Q9Y463 whole entry): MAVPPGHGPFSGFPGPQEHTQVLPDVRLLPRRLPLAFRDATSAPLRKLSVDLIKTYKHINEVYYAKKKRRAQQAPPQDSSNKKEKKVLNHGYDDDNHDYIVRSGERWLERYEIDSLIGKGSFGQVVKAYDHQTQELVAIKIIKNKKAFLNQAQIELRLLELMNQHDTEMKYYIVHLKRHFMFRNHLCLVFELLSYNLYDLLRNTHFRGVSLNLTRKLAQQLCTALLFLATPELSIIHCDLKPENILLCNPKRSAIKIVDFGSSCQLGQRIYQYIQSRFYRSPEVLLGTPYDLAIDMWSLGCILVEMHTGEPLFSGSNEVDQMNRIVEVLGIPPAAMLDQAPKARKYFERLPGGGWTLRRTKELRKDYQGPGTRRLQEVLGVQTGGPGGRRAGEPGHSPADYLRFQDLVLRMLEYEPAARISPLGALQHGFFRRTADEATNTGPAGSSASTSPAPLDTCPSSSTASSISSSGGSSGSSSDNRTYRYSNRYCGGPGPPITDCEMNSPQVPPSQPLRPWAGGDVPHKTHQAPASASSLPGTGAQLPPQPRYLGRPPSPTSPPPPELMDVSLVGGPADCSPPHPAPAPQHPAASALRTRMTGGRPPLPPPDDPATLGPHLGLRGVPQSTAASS

[19] = molecular target: T5, RIPK1 (Homo sapiens, UniProt Q13546); test: ScanEDGE; format: binding; conditions: 1 μM
T5 sequence (Q13546 1-671): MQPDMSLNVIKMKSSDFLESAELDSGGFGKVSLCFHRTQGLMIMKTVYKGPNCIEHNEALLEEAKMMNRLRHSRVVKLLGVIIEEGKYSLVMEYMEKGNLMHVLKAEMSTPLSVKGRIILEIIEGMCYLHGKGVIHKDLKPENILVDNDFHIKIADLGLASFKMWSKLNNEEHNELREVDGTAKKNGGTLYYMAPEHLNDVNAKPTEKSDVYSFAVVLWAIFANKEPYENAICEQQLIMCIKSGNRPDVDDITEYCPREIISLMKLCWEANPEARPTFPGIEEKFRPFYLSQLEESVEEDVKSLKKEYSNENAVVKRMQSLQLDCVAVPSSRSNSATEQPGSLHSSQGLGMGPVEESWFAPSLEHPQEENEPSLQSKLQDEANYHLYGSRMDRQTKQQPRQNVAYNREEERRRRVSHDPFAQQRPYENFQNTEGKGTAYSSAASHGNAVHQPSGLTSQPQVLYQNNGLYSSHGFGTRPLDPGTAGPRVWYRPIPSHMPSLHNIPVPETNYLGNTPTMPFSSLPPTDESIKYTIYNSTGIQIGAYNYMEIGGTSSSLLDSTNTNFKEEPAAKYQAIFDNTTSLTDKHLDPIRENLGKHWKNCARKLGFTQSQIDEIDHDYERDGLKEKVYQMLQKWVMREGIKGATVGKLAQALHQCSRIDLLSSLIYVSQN

[20] = tested on: diversity set of 97 kinases (90 wild type kinase and 7 mutants); format: binding, human; conditions: 1 μM
[21] = read-out: IC50, nM ADPGlo, RIPK3, recombinant RIPK3 (20 ng)
[22] = read-out: IC50, nM ADPGlo, RIPK1, recombinant RIPK1 (20 ng)
[23] = read-out: IC50, nM ADPGlo, RIPK2, recombinant RIPK2 (10 ng)

T1 sequence (Q9Y572 whole entry, species assumed): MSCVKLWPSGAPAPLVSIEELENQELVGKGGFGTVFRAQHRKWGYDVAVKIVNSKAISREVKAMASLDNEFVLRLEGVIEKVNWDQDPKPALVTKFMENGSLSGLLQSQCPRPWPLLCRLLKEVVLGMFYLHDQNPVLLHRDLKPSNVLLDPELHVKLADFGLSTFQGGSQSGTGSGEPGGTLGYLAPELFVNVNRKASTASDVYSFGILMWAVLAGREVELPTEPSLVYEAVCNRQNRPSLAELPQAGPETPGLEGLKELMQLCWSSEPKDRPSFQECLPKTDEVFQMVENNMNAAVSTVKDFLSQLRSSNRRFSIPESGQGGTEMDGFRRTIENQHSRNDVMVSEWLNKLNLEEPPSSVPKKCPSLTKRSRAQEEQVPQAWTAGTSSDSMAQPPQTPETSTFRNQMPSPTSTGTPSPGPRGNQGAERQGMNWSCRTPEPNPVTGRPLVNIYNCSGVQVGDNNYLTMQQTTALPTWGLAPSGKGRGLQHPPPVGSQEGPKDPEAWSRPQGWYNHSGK

## Cc1cn(-c2cc(NC(=O)c3ccc(C)c(Nc4nccc(-c5cccnc5)n4)c3)cc(C(F)(F)F)c2)cn1 [Nilotininb]
[1]
  inhibition of IFNγ-induced cell death: Neither Gleevec nor Nilotininb

## CN1CCN(Cc2ccc(NC(=O)c3cccc(C#Cc4cnc5cccnn45)c3)cc2C(F)(F)F)CC1 [CS1]
[2]; [21]
  IC50: 7.4 nM
[3]; [22]
  IC50: 42 nM
[4]; 10 ng/ml human TNFα, 24 hr
  IC50: 219 nM
[5]; [23]
  IC50: 63 nM

## CNC(=O)c1cc(Oc2ccc(NC(=O)Nc3cc(C(C)(C)C)nn3-c3ccc4ncccc4c3)c(F)c2)ccn1 [DCC-2036]
[2]
  IC50: 18 nM
[3]
  IC50: 5.7 nM
[4]; versus ponatinib
  cellular activity, fold lower than ponatinib: > 10 fold
[5]
  IC50: 520 nM

## Cc1cc(-c2cnc(N)c3c(-c4ccc5scnc5c4)csc23)n(C)n1 [GSK-843]
[6]
  inhibition of necrosome complex formation: not affected
[7]
  protection from TCZ-induced cell death: efficiently protecting cells

## CN1C(=O)NC(Cc2c[nH]c3c(Cl)cccc23)C1=O (centres unmarked) [Nec-1, 7-Cl-O-Nec-1]
[8]
  inhibition of poly(I:C)/zVAD.fmk-induced cell death: marginal protection
[2]; [21]
  IC50: > 10000 nM
[9]; 1 mg/kg i.p.
  circulating levels of IL-6: reduced
  survival of the animals: prevented death of the animals
  protection from TNFα toxicity in vivo: significant protection from injury
[10]
  inhibition of RIPK3 in 32P autophosphorylation assay: only inhibited RIPK1
[11]
  IC50: > 10000 nM
[4]; 10 ng/ml human TNFα, 24 hr
  IC50: 210 nM
[6]
  inhibition of necrosome complex formation: efficiently blocked necrosome assembly
[5]; [23]
  IC50: > 10000 nM
[12]
  inhibition of TNFα mRNA upregulation, immortalized macrophages: inhibited
[13]
  inhibition of TNFα mRNA upregulation, Jurkat cells: inhibited
[14]
  inhibition of RIPK1 in 32P autophosphorylation assay: only inhibited RIPK1

## Cc1ccc(NC(=O)c2ccc(CN3CCN(C)CC3)cc2)cc1Nc1nccc(-c2cccnc2)n1 [Gleevec, Imatinib]
[1]
  inhibition of IFNγ-induced cell death: Neither Gleevec nor Nilotininb
[10]
  inhibition of RIPK3 in 32P autophosphorylation assay: neither inhibited
[4]; 10 ng/ml human TNFα, 24 hr
  prevention of necroptosis: nor prevented necroptosis
[14]
  inhibition of RIPK1 in 32P autophosphorylation assay: neither inhibited

## COc1ccc2c(c1)C1=NN(C(C)=O)C(c3ccc(F)cc3)C1CC2 (centres unmarked) [Nec-3]
[2]; [21]
  IC50: > 10000 nM
[11]
  IC50: > 10000 nM
[3]; [22]
  IC50: 840 nM
[4]; 10 ng/ml human TNFα, 24 hr
  IC50: 260 nM
[5]; [23]
  IC50: > 10000 nM

## CC(C)S(=O)(=O)c1ccc2nccc(Nc3ccc4scnc4c3)c2c1 [GSK-872]
[1]
  inhibition of IFNγ-induced cell death: blockade of cell death
[8]
  inhibition of poly(I:C)/zVAD.fmk-induced cell death: inhibit
[6]
  inhibition of necrosome complex formation: not affected
[15]
  protection from RIPK1-dependent, RIPK3-independent apoptosis: did not inhibit RIPK1-dependent apoptosis
[7]
  protection from TCZ-induced cell death: efficiently protecting cells

## Cc1ccc(C(=O)Nc2ccc(CN3CCN(C)CC3)c(C(F)(F)F)c2)cc1C#Cc1cnc2cccnn12 [Ponatinib, ponatinib]
[9]
  activity with respect to survival and injury markers: significantly higher activity than Nec-1
[9]; 1 mg/kg i.p.
  protection from TNFα toxicity in vivo: completely prevented toxicity of TNFα
[10]
  inhibition of RIPK3 in 32P autophosphorylation assay: inhibition
[16]
  inhibition of RIPK1 in HTRF assay: inhibition
[6]
  inhibition of necrosome complex formation: substantial, but lower activity
[12]
  inhibition of TNFα mRNA upregulation, immortalized macrophages: efficiently inhibited
[15]
  protection from RIPK1-dependent, RIPK3-independent apoptosis: protected
[13]
  inhibition of TNFα mRNA upregulation, Jurkat cells: efficiently inhibited
[17]
  inhibition of L157F/M92T RIPK1 in 32P autophosphorylation assay: inhibited
[14]
  inhibition of RIPK1 in 32P autophosphorylation assay: inhibition

## Cc1ccc(CCCCN2C(=O)NC(Cc3c[nH]c4c(Cl)cccc34)C2=O)cc1C#Cc1cnc2cccnn12 (centres unmarked) [PN10]
[18]
  inhibition of DYRK1b in ScanEDGE panel: 79%
[9]
  activity with respect to survival and injury markers: significantly higher activity than Nec-1
[9]; 1 mg/kg i.p.
  protection from TNFα toxicity in vivo: fully protective
[11]
  IC50: > 10000 nM
[19]
  inhibition of RIPK1 in ScanEDGE panel: > 99%
[6]
  inhibition of necrosome complex formation: efficiently inhibited
[20]
  inhibition of other kinases of the ScanEDGE panel: No other kinase was inhibited >65%
[5]; [23]
  IC50: 1400 nM
[12]
  inhibition of TNFα mRNA upregulation, immortalized macrophages: efficiently inhibited
[13]
  inhibition of TNFα mRNA upregulation, Jurkat cells: efficiently inhibited
[7]
  Maximal protection from TCZ-induced cell death: ~ 85%
